± gives the expanded uncertainty stated by the source.
Assays:
[1] = refractive index (Na D-line) (dimensionless); settings: 298.15 K; 101.33 kPa; Liquid; Standard Abbe refractometry
[2] = 298.15 K; 101.33 kPa; Liquid

## CC(C)CO [2-methyl-1-propanol]
[1]
  refractive index: 1.3938 ± 0.0005
[2]
  mass density: 797.83 ± 0.48 kg/m3

## CC(=O)OCC(C)C [2-methylpropyl ethanoate]
[1]
  refractive index: 1.3876 ± 0.0006
[2]
  mass density: 866.12 ± 0.67 kg/m3

## OCC(O)CO [glycerol]
[1]
  refractive index: 1.4726 ± 0.0005
[2]
  mass density: 1258.5 ± 0.6 kg/m3
